Laboratory results taken from PubChem BioAssay AID1919001 (Molecular Pharmacology Branch, DTP, NCI, 2023).
Several values for one entry are separate records, joined by “and”; a condition that tells them apart may be missing. Equal entries are not always repeated.

Test system: 699152-130-R-J1-PDC complex spheroid growth
Assay: Anticancer human tumor 699152-130-R-J1-PDC patient-derived pancreatic carcinoma cell line growth inhibition [AhR]
Details: for viability, T/C: stronger effect = lower value
Description: Multicellular complex tumor spheroid response to aryl hydrocarbon receptor antagonists in combination with a variety of drugs and investigational agents in selected tumor cell lines
The current study was undertaken to assess response to aryl hydrocarbon receptor antagonists in combination with standard-of-care drugs and investigational agents in solid tumor complex spheroid models. Complex spheroids include a stromal component modeled by human endothelial cells (HUVEC) and fibroblasts modeled by human mesenchymal stem cells (MSCs). The concentration ranges selected for each drug and investigational agent were based upon clinically achievable concentrations if the clinical Cmax of the agent was known.
Compounds. The drugs and investigational agents: BAY 2416964 (NSC825713), GNF351 (NSC835774), CH-223191 (NSC835775), CPI-455 (NSC825282), aza-TdCyd (NSC777586), decitabine (NSC127716), belinostat (NSC758774), entinostat (NSC756642), pevonedistat (NSC761192), tazemetostat (NSC777109), talazoparib (NSC765396), olaparib (NSC753686), selinexor (NSC780203), nedisertib (M3814, NSC802822), bortezomib (NSC756655), venetoclax (NSC766270), doxorubicin (NSC123127), elimusertib (BAY189344, NSC800525), ceralasertib (AZD6738, NSC777638), TAK-243 (NSC785004), alisertib (NSC759677), etoposide (NSC141540), topotecan (NSC609699), eribulin (NSC707389), gemcitabine (NSC613327), carboplatin (NSC241240), cisplatin (NSC119875), and SN-38 (NSC673596) were obtained from the National Cancer Institute (NCI) Developmental Therapeutics Program Chemical Repository (32). The FDA-approved anticancer drug set is available from the Developmental Therapeutics Program at https://dtp.cancer.gov/organization/dscb/obtaining/available plates.htm. […] The stock solutions were prepared in dimethyl sulfoxide (DMSO, Sigma-Aldrich, St. Louis, MO, cat. D2650), except for the platinum compounds which were prepared in saline (Quality Biological, Gaithersburg, MD, cat. 114-055-101), at 800-fold the tested concentration and stored at -70 degrees C prior to their use. All drugs and investigational agents were tested over a range starting from a high concentration at or near the clinical Cmax and decreasing in half-log increments. If the clinical Cmax for an agent had not been determined, the highest concentration tested was 10 microM (Table 1).
Cell Culture. All cells were maintained in an incubator at 37 degrees C and 5% CO2 with 95% humidity. The PDC lines were cultured according to standard operating procedures established by the NCI PDMR (https://pdmr.cancer.gov). Briefly, all PDCs were thawed and cultured in Matrigel-coated flasks prepared with a working solution of 1X Ham's F-12 nutrient mix, without supplementation (Invitrogen, Waltham, MA, cat. 11765054), 100 U/mL penicillin-streptomycin (Invitrogen, cat. 15140122), and 2.5% Matrigel (Corning Inc., Corning, NY, cat. 354248) for the first three passages. All PDCs were cultured in complete DMEM/F-12 media containing advanced DMEM/F-12 (Invitrogen, cat. 12634028), 4.9% defined fetal bovine serum, heat inactivated (HyClone Laboratories Inc., Logan, UT, cat. SH30070.03HI), 389 ng/mL hydrocortisone (Sigma-Aldrich, cat. H4001), 9.7 ng/mL human EGF recombinant protein (Invitrogen, cat. PHG0313), 23.4 microg/mL adenine (Sigma-Aldrich, cat. A2786), 97.3 U/mL penicillin-streptomycin (Invitrogen, cat. 15140122), 1.9 mM L-glutamine (Invitrogen, cat. 25030081), and 9.7 microM Y-27632 dihydrochloride (Tocris Bioscience, Bristol, United Kingdom, cat. 1254). The PDCs were cultured in complete DMEM/F12 media without 10 microM Y-27632 dihydrochloride for at least two passages prior to the screen. The established cell lines NCI-H1341 and […] were cultured in DMEM/F-12, HEPES (Invitrogen, cat. 11330032), 5% defined fetal bovine serum (HyClone Laboratories Inc., cat. SH30070.03), ITS premix universal culture supplement [insulin (5 microg/mL), transferrin (5 microg/mL), and selenious acid (5 ng/mL)] […]
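Also: compound exposure lasted 7 days after spheroids had grown for 3 days.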

IC50 (curve of compound)	Structure (SMILES)	viability, T/C (compound 0.0316 µM)	viability, T/C (compound 0.1 µM)	viability, T/C (compound 0.316 µM)	viability, T/C (compound 1 µM)	viability, T/C (compound 3.16 µM)	viability, T/C (compound 10 µM)	further results
4.91 µM and 4.15 µM and 3.98 µM	COc1ccc([C@@H](O)c2cc(-c3ncnc4cc(N5CCOCC5)ccc34)c(F)cc2Cl)nn1	94.1% and 90.8% and 102%	93.3% and 98.1% and 115%	93.6% and 91.3% and 90.6%	79.1% and 78.4% and 71.7%	60.8% and 57.4% and 59.3%	33.6% and 28.5% and 30.6%	–
1.51 µM and 0.832 µM and 0.802 µM	NS(=O)(=O)OCC1CC(n2ccc3c(NC4CCc5ccccc54)ncnc32)CC1O (stereo not drawn)	96.1% and 125% and 117%	123% and 111% and 125%	127% and 113% and 129%	67.1% and 38% and 43.2%	18.2% and 19.7% and 24.9%	20.3% and 24% and 29.6%	–
7.13 µM and 7.65 µM and 8.49 µM	Nc1ccccc1NC(=O)c1ccc(CNC(=O)OCc2cccnc2)cc1	91.4% and 87.2% and 106%	96.6% and 89.1% and 109%	96.1% and 93.6% and 116%	97.1% and 103% and 95%	76.1% and 86% and 93.4%	39.1% and 38.4% and 42.8%	–
> 1 µM	Nc1ncn(C2CC(O)C(CO)O2)c(=O)n1 (stereo not drawn)	93.1% and 93% and 94.8%	91% and 96.5% and 87.2%	96.5% and 84.4% and 102%	92.9% and 87.3% and 89%	–	–	viability, T/C (compound 0.00316 µM): 93.4% and 101% and 95.4%; viability, T/C (compound 0.01 µM): 104% and 93.1% and 106%
> 3 µM	O=C(C=Cn1cnc(-c2cc(C(F)(F)F)cc(C(F)(F)F)c2)n1)NNc1cnccn1	–	–	–	–	–	–	viability, T/C (compound 0.00949 µM): 99.1% and 89.9% and 89%; viability, T/C (compound 0.03 µM): 98.2% and 95.7% and 107%; viability, T/C (compound 0.0949 µM): 92% and 79.8% and 82.9%; viability, T/C (compound 0.3 µM): 73.7% and 77.4% and 74.8%; viability, T/C (compound 0.949 µM): 69.4% and 79.6% and 90%; viability, T/C (compound 3 µM): 77.4% and 72.9% and 69.9%
> 10 µM	O=C(c1cc(Cc2n[nH]c(=O)c3ccccc23)ccc1F)N1CCN(C(=O)C2CC2)CC1	98.3% and 101% and 99.8%	104% and 105% and 98.3%	101% and 95% and 92%	104% and 102% and 95.3%	98.9% and 93% and 89.2%	103% and 82.8% and 83.2%	–

The remaining lines, values behind:

Structure (SMILES)	IC50 (curve of compound)	viability, T/C (compound 0.0316 µM)	viability, T/C (compound 0.1 µM)	viability, T/C (compound 0.316 µM)	viability, T/C (compound 1 µM)	viability, T/C (compound 3.16 µM)	viability, T/C (compound 10 µM)	further results
COc1cccc2c1C(=O)c1c(O)c3c(c(O)c1C2=O)CC(O)(C(=O)CO)CC3OC1CC(N)C(O)C(C)O1 (stereo not drawn)	0.319 µM and 0.179 µM and 0.444 µM	71.1% and 70.4% and 82.5%	64.3% and 56.2% and 87.1%	48.5% and 41.1% and 55.1%	30.3% and 29.7% and 31.8%	3.77% and 2.01% and 2.55%	8.13% and 7.62% and 11.8%	–
Cc1ccccc1N=Nc1ccc(NC(=O)c2ccnn2C)c(C)c1	–	–	–	–	–	–	–	IC50 (compound alone, run of 07/26/2022): > 10 µM
Cc1cncc(-c2nc(NCCc3c[nH]c4ccccc34)c3ncn(C(C)C)c3n2)c1	–	–	97.9% [middle of 20 runs]	–	–	–	–	–
Cn1ncnc1C1c2n[nH]c(=O)c3cc(F)cc(c23)NC1c1ccc(F)cc1 (stereo not drawn)	> 0.1 µM	102% and 100% and 97.5%	104% and 86.2% and 91%	–	–	–	–	viability, T/C (compound 0.000316 µM): 103% and 92% and 97.7%; viability, T/C (compound 0.001 µM): 100% and 90.9% and 98.2%; viability, T/C (compound 0.00316 µM): 109% and 95.2% and 113%; viability, T/C (compound 0.01 µM): 101% and 102% and 111%
Nc1ccn(C2OC(CO)C(O)C2(F)F)c(=O)n1 (stereo not drawn)	–	74.1% and 75.2% and 60.5%	65.7% and 65.9% and 56.8%	48.5% and 56.9% and 47.4%	51.8% and 50.9% and 45.2%	42.4% and 53.5% and 42.6%	39.8% and 48.5% and 36.5%	–
Nc1ncn(C2CC(O)C(CO)S2)c(=O)n1 (stereo not drawn)	> 0.3 µM	–	–	–	–	–	–	viability, T/C (compound 0.000949 µM): 98% and 103% and 102%; viability, T/C (compound 0.003 µM): 105% and 110% and 111%; viability, T/C (compound 0.00949 µM): 97% and 102% and 112%; viability, T/C (compound 0.03 µM): 99.5% and 104% and 110%; viability, T/C (compound 0.0949 µM): 110% and 101% and 95.2%; viability, T/C (compound 0.3 µM): 111% and 96.2% and 102%
O=C(C=Cc1cccc(S(=O)(=O)Nc2ccccc2)c1)NO	> 10 µM	107% and 91.2% and 102%	114% and 101% and 110%	106% and 114% and 116%	106% and 116% and 112%	106% and 107% and 116%	86.2% and 96.8% and 77.4%	–
